Results as given in the supplement of paper PMC10307832.

Columns and labels:
Assay in all cases: relative viability (nuclei count vs DMSO), 5 days (fraction); higher = more cells survive
Crenolanib = compound: CC1(COc2ccc3c(c2)ncn3-c2ccc3cccc(N4CCC(N)CC4)c3n2)COC1 [Crenolanib]
Method in brief: (§1)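 Lung cancer cell lines were seeded into 1536-well plates, kept overnight at 37 °C and pinned with five library-drug doses (not always all listed) spaced by √10. After 5 days, nuclei were Hoechst-stained, imaged at 4× and counted with MetaXpress. Viability is treated-well nuclei over vehicle-well nuclei, taken as a median across plates. Plates needed control CV below 25% and at least one doubling.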

Tivantinib = compound: O=C1NC(=O)[C@@H](c2cn3c4c(cccc24)CCC3)[C@@H]1c1c[nH]c2ccccc12 [Tivantinib]
Method in brief: as §1

Crenolanib + Foretinib = compound: CC1(COc2ccc3c(c2)ncn3-c2ccc3cccc(N4CCC(N)CC4)c3n2)COC1 [Crenolanib] + COc1cc2c(Oc3ccc(NC(=O)C4(C(=O)Nc5ccc(F)cc5)CC4)cc3F)ccnc2cc1OCCCN1CCOCC1 [Foretinib] (partner 0.25 µM)
Method in brief: (§2)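 The day after seeding in 1536-well plates, lung cancer cell lines were treated by pin tool with a single drug, or with a fixed anchor-drug dose together with five library-drug doses (not always all listed) in √10 steps. After 5 days, a combined fix-and-stain solution (final 0.05% Triton X-100, 1% formaldehyde, 1 ug/ml Hoechst) was added. Nuclei counted on 4× images gave relative viability as treated counts over vehicle counts, reported as the median of duplicate plates.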

Crenolanib + Lapatinib = compound: CC1(COc2ccc3c(c2)ncn3-c2ccc3cccc(N4CCC(N)CC4)c3n2)COC1 [Crenolanib] + CS(=O)(=O)CCNCc1ccc(-c2ccc3ncnc(Nc4ccc(OCc5cccc(F)c5)c(Cl)c4)c3c2)o1 [Lapatinib] (partner 2 µM)
Method in brief: as §2

UMC-11 was tested, and the relative viability (Crenolanib; 0.01 µM) was 0.963, the relative viability (Crenolanib; 0.03162 µM) was 0.978 and the relative viability (Crenolanib; 0.1 µM) was 0.972. The relative viability (Crenolanib; 0.3162 µM) was 1.01, the relative viability (Crenolanib; 1 µM) was 0.931 and the relative viability (Tivantinib; 0.01 µM) was 0.966. It also gave a relative viability (Tivantinib; 0.03162 µM) of 0.842, a relative viability (Tivantinib; 0.1 µM) of 0.923 and a relative viability (Tivantinib; 0.3162 µM) of 1.03. It also gave a relative viability (Crenolanib + Foretinib; first compound 0.01 µM) of 1.07, a relative viability (Crenolanib + Foretinib; first compound 0.03162 µM) of 1.11 and a relative viability (Crenolanib + Foretinib; first compound 0.1 µM) of 0.95. For the same cell line, the relative viability (Crenolanib + Foretinib; first compound 0.3162 µM) was 1.21, the relative viability (Crenolanib + Foretinib; first compound 1 µM) was 0.947 and the relative viability (Crenolanib + Lapatinib; first compound 0.01 µM) was 0.955. The relative viability (Crenolanib + Lapatinib; first compound 0.03162 µM) was 1.04, the relative viability (Crenolanib + Lapatinib; first compound 0.1 µM) was 0.895 and the relative viability (Crenolanib + Lapatinib; first compound 0.3162 µM) was 0.985. For the same cell line, the relative viability (Crenolanib + Lapatinib; first compound 1 µM) was 0.95.
